Measurements reported in US11932845B2, “Microorganisms and methods for production of 4-hydroxybutyrate, 1,4-butanediol and related compounds” (priority 2012, dated 2024).
Where two headings read alike, the source gives them in different places.

What was measured:
Alcohol dehydrogenase = Alcohol dehydrogenase (ADH) assay in the reductive direction, cell extracts; conditions: cell extracts from MG1655 lacI^Q containing pZA33
Method: (§1) Alcohol (ADH) and aldehyde (ALD) dehydrogenase was assayed in the reductive direction using a procedure adapted from several literature sources (Durre et al., FEMS Microbiol. Rev. 17:251-262 (1995); Palosaari and Rogers, J. Bacteriol. 170:2971-2976 (1988) and Welch et al., Arch. Biochem. Biophys. 273:309-318 (1989). The oxidation of NADH is followed by reading absorbance at 340 nm every four seconds for a total of 240 seconds at room temperature. The reductive assays were performed in 100 mM MOPS (adjusted to pH 7.5 with KOH), 0.4 mM NADH, and from 1 to 50 μl of cell extract. The reaction is started by adding the following reagents: 100 μl of 100 mM acetaldehyde or butyraldehyde for ADH, or 100 μl of 1 mM acetyl-CoA or butyryl-CoA for ALD. The Spectrophotometer is quickly blanked and then the kinetic read is started. The resulting slope of the reduction in absorbance at 340 nm per minute, along with the molar extinction coefficient of NAD(P)H at 340 nM (6000) and the protein concentration of the extract, can be used to determine the specific activity.
(§2) Gene candidates for the 4-HB to BDO conversion pathway were next tested for activity when expressed in the E. coli host MG1655 lacI^Q. Recombinant strains containing each gene candidate expressed on pZA33 were grown in the presence of 0.25 mM IPTG for four hours at 37° C. to fully induce expression of the enzyme. Four hours after induction, cells were harvested and assayed for ADH and ALD activity as described above.

Aldehyde dehydrogenase = Aldehyde dehydrogenase (ALD) assay in the reductive direction, cell extracts; conditions: cell extracts from MG1655 lacI^Q containing pZA33
Method: as §1, §2

[1] = test system: alcohol dehydrogenase from Brevibacterium sp KU 1309; conditions: reduction of carbonyl compounds; cited from earlier work
[2] = test system: L(+)-lactate dehydrogenase from A. eutrophus; conditions: compared with that on pyruvate; cited from earlier work
[3] = target: T1, L(+)-lactate dehydrogenase from rabbit muscle (Oryctolagus cuniculus, UniProt P13491); conditions: compared with that on pyruvate; cited from earlier work
T1 construct: host or cells: rabbit muscle

[4] = test system: D(−)-lactate dehydrogenase from L. leichmanii; conditions: compared with that on pyruvate; cited from earlier work
aminotransferase = conditions: activity considered 100% on tyrosine; cited from earlier work
cytochrome-bd oxidases = conditions: cited from earlier work; for Km: pH 7
[5] = Minohara et al., 2002; read-out: Km for O2; cited from earlier work

Molecule: 0011: Gene ID 0011, adhE, E. coli, Aldehyde/alcohol dehydrogenase [Sample 0011]
- Alcohol dehydrogenase, Substrate Acetaldehyde (Alcohol dehydrogenase): 0.0093 μmol min^−1 mg cell protein^−1
- Alcohol dehydrogenase, Substrate Butyraldehyde (Alcohol dehydrogenase): 0.0265 μmol min^−1 mg cell protein^−1
- Aldehyde dehydrogenase, Substrate Acetyl-CoA (Aldehyde dehydrogenase): 0.0095 μmol min^−1 mg cell protein^−1
- Aldehyde dehydrogenase, Substrate Butyryl-CoA (Aldehyde dehydrogenase): 0.0069 μmol min^−1 mg cell protein^−1

Molecule: CCCCCCCC=O [1-Octylaldehyde]
- Relative Activity [1]: 87%

Molecule: CC(C=O)c1ccccc1 (stereo not shown) [2-Phenylpropionaldehyde]
- Relative Activity [1]: 188%

Molecule: CCC(C)C(=O)C(=O)O (stereo not shown) [3-Methyl-2-oxovalerate]
- Activity (%) of L(+)-lactate dehydrogenase from A. eutrophus [2]: 5.3%
- Activity (%) of L(+)-lactate dehydrogenase from rabbit muscle [3]: 0.0%
- Activity (%) of D(−)-lactate dehydrogenase from L. leichmanii [4]: 0.0%

Molecule: CC(C)CC(=O)C(=O)O [4-Methyl-2-oxopentanoate]
- Activity (%) of L(+)-lactate dehydrogenase from A. eutrophus [2]: 39.0%
- Activity (%) of L(+)-lactate dehydrogenase from rabbit muscle [3]: 1.4%
- Activity (%) of D(−)-lactate dehydrogenase from L. leichmanii [4]: 1.1%

Molecule: CC(=O)c1ccccc1 [Acetophenone]
- Relative Activity [1]: 0%

Molecule: O=CCc1ccccc1 [Phenylacetaldehyde]
- Relative Activity [1]: 100%

Molecule: CC(C)C[C@H](N)C(=O)O [leucine]
- activity (aminotransferase): 25%

Molecule: CSCC[C@H](N)C(=O)O [methionine]
- activity (aminotransferase): 25%

Molecule: N[C@@H](Cc1ccccc1)C(=O)O [phenylalanine]
- activity (aminotransferase): 90%

Molecule: N[C@@H](Cc1c[nH]c2ccccc12)C(=O)O [tryptophan]
- activity (aminotransferase): 85%

Molecule: N[C@@H](Cc1ccc(O)cc1)C(=O)O [tyrosine]
- activity (aminotransferase): 100%

Molecule: Cytochrome bd-II
- In vivo sp act (cytochrome-bd oxidases): 70 ± 12 mol O2/mol cytochrome bd/s
- Vmax (cytochrome-bd oxidases): 818 ± 75 mol O/mol cytochrome bd/s
- Km (cytochrome-bd oxidases; read-out: Km (O2) at pH 7): 2 ± 0.3 µM
- Km (cytochrome-bd oxidases; read-out: Km (UQ-H2) at pH 7): 250 ± 45 µM

Molecule: cytochrome bd oxidase: E. coli cytochrome d terminal oxidase, encoded by the cyd operon
- Km [5]: 10 nM

B1: 0026: Gene ID 0026, bdhA, Clostridium acetobutylicum ATCC 824, Butanol dehydrogenase (protein, UniProt Q04944 1-389, looked up)
NADH-dependent butanol …: MLSFDYSIPTKVFFGKGKIDVIGEEIKKYGSRVLIVYGGGSIKRNGIYDRATAILKENNIAFYELSGVEPNPRITTVKKGIEICRENNVDLVLAIGGGSAIDCSKVIAAGVYYDGDTWDMVKDPSKITKVLPIASILTLSATGSEMDQIAVISNMETNEKLGVGHDDMRPKFSVLDPTYTFTVPKNQTAAGTADIMSHTFESYFSGVEGAYVQDGIAEAILRTCIKYGKIAMEKTDDYEARANLMWASSLAINGLLSLGKDRKWSCHPMEHELSAYYDITHGVGLAILTPNWMEYILNDDTLHKFVSYGINVWGIDKNKDNYEIAREAIKNTREYFNSLGIPSKLREVGIGKDKLELMAKQAVRNSGGTIGSLRPINAEDVLEIFKKSY
- Alcohol dehydrogenase, Substrate Acetaldehyde (Alcohol dehydrogenase): 0.0008 μmol min^−1 mg cell protein^−1
- Alcohol dehydrogenase, Substrate Butyraldehyde (Alcohol dehydrogenase): 0.0024 μmol min^−1 mg cell protein^−1
- Aldehyde dehydrogenase, Substrate Acetyl-CoA (Aldehyde dehydrogenase): 0.0005 μmol min^−1 mg cell protein^−1
- Aldehyde dehydrogenase, Substrate Butyryl-CoA (Aldehyde dehydrogenase): 0 μmol min^−1 mg cell protein^−1

B2: Cytochrome bo (protein, UniProt P0ABJ1 25-315; P0ABI8 1-663; P0ABJ3 1-204; P0ABJ6 1-109, looked up)
Cytochrome bo(3) ubiquinol … 1: CNSALLDPKGQIGLEQRSLILTAFGLMLIVVIPAILMAVGFAWKYRASNKDAKYSPNWSHSNKVEAVVWTVPILIIIFLAVLTWKTTHALEPSKPLAHDEKPITIEVVSMDWKWFFIYPEQGIATVNEIAFPANTPVYFKVTSNSVMNSFFIPRLGSQIYAMAGMQTRLHLIANEPGTYDGISASYSGPGFSGMKFKAIATPDRAAFDQWVAKAKQSPNTMSDMAAFEKLAAPSEYNQVEYFSNVKPDLFADVINKFMAHGKSMDMTQPEGEHSAHEGMEGMDMSHAESAH
Cytochrome bo(3) ubiquinol … 2: MFGKLSLDAVPFHEPIVMVTIAGIILGGLALVGLITYFGKWTYLWKEWLTSVDHKRLGIMYIIVAIVMLLRGFADAIMMRSQQALASAGEAGFLPPHHYDQIFTAHGVIMIFFVAMPFVIGLMNLVVPLQIGARDVAFPFLNNLSFWFTVVGVILVNVSLGVGEFAQTGWLAYPPLSGIEYSPGVGVDYWIWSLQLSGIGTTLTGINFFVTILKMRAPGMTMFKMPVFTWASLCANVLIIASFPILTVTVALLTLDRYLGTHFFTNDMGGNMMMYINLIWAWGHPEVYILILPVFGVFSEIAATFSRKRLFGYTSLVWATVCITVLSFIVWLHHFFTMGAGANVNAFFGITTMIIAIPTGVKIFNWLFTMYQGRIVFHSAMLWTIGFIVTFSVGGMTGVLLAVPGADFVLHNSLFLIAHFHNVIIGGVVFGCFAGMTYWWPKAFGFKLNETWGKRAFWFWIIGFFVAFMPLYALGFMGMTRRLSQQIDPQFHTMLMIAASGAVLIALGILCLVIQMYVSIRDRDQNRDLTGDPWGGRTLEWATSSPPPFYNFAVVPHVHERDAFWEMKEKGEAYKKPDHYEEIHMPKNSGAGIVIAAFSTIFGFAMIWHIWWLAIVGFAGMIITWIVKSFDEDVDYYVPVAEIEKLENQHFDEITKAGLKNGN
Cytochrome bo(3) ubiquinol … 3: MATDTLTHATAHAHEHGHHDAGGTKIFGFWIYLMSDCILFSILFATYAVLVNGTAGGPTGKDIFELPFVLVETFLLLFSSITYGMAAIAMYKNNKSQVISWLALTWLFGAGFIGMEIYEFHHLIVNGMGPDRSGFLSAFFALVGTHGLHVTSGLIWMAVLMVQIARRGLTSTNRTRIMCLSLFWHFLDVVWICVFTVVYLMGAM
Cytochrome bo(3) ubiquinol … 4: MSHSTDHSGASHGSVKTYMTGFILSIILTVIPFWMVMTGAASPAVILGTILAMAVVQVLVHLVCFLHMNTKSDEGWNMTAFVFTVLIIAILVVGSIWIMWNLNYNMMMH
- Vmax (cytochrome-bd oxidases): 225 mol O/mol cytochrome bd/s

B3: 0013: Gene ID 0013, bdhB, Clostridium acetobutylicum ATCC 824, Butanol dehydrogenase II (protein, UniProt Q04945 1-390, looked up)
NADH-dependent butanol …: MVDFEYSIPTRIFFGKDKINVLGRELKKYGSKVLIVYGGGSIKRNGIYDKAVSILEKNSIKFYELAGVEPNPRVTTVEKGVKICRENGVEVVLAIGGGSAIDCAKVIAAACEYDGNPWDIVLDGSKIKRVLPIASILTIAATGSEMDTWAVINNMDTNEKLIAAHPDMAPKFSILDPTYTYTVPTNQTAAGTADIMSHIFEVYFSNTKTAYLQDRMAEALLRTCIKYGGIALEKPDDYEARANLMWASSLAINGLLTYGKDTNWSVHLMEHELSAYYDITHGVGLAILTPNWMEYILNNDTVYKFVEYGVNVWGIDKEKNHYDIAHQAIQKTRDYFVNVLGLPSRLRDVGIEEEKLDIMAKESVKLTGGTIGNLRPVNASEVLQIFKKSV
- Alcohol dehydrogenase, Substrate Acetaldehyde (Alcohol dehydrogenase): 0.0142 μmol min^−1 mg cell protein^−1
- Alcohol dehydrogenase, Substrate Butyraldehyde (Alcohol dehydrogenase): 0.0130 μmol min^−1 mg cell protein^−1
